The EC50 is the midpoint of the concentration-response curve.

Where only a bound is given, the exact number is not on record here.

The subject of experiment [1] is ovariectomized female rats. The experiment is described as follows: Multi-endpoint adult rat model, uterus/breast tissue-selectivity. Format: in vivo. The settings on record: ratio of relative efficacy to MPA in uterus verse in breast tissue at the same highest dose tested; estrone-treated ovariectomized rats, three days.
Source text: In this assay, advantage is taken of the fact that in the uterus, estrogens induce a proliferation and increase in the epithelial cell height and uterine wet weight, which can be antagonized by progestins. In the breast, estrogens induce a proliferation of the ductal network while progestins stimulate the growth of the lobular-alveolar end buds, which grow from the distal end of the ducts. […] Proliferating cells or inhibition of proliferating cells were quantitated either by measurements of cell height in sectioned and stained tissue samples or, in the case of the breast, immuno-histochemically labeled Brdu incorporated nuclei.
Another experiment deals with immature rabbits. The experiment is described as follows: McPhail (Clauberg) rabbit assay of progestational activity. Format: in vivo. The note with it: Oryctolagus cuniculus; estradiol-primed immature rabbits; glandular changes of the uterus; read-out: potency (MAD in mg/kg), minimum active dose. As for the experimental part: The superiority of the 7,9-difluoro analogue compounds of the present invention was further characterized utilizing the McPhail rabbit model according to the following illustrative Examples. The Clauberg or McPhail assay is a classic assay utilizing rabbits to measure progestational activity. […] In this assay, immature rabbits are treated initially with estradiol, which induces growth in the uterus. This is followed by a progestin, which causes a large change in the glandular content of the uterus. It is this change in the glandular component which is a measure of the progestational activity of a progestin. The measurement of these glandular changes is carried out histologically using stained sections of the uterus. The in vivo comparison between the new 7,9-difluoro compounds and analogues with substitution patterns different from 7,9-difluoro (U.S. Pat. Nos. 5,693,646 and 5,696,127) is tabulated in Tables 7 and 8. The in vivo potency of the progestins is presented as the minimum active dose (MAD).

The target of the next experiment is T1, hPR (Homo sapiens, UniProt P06401).
T1 sequence (P06401 1-933): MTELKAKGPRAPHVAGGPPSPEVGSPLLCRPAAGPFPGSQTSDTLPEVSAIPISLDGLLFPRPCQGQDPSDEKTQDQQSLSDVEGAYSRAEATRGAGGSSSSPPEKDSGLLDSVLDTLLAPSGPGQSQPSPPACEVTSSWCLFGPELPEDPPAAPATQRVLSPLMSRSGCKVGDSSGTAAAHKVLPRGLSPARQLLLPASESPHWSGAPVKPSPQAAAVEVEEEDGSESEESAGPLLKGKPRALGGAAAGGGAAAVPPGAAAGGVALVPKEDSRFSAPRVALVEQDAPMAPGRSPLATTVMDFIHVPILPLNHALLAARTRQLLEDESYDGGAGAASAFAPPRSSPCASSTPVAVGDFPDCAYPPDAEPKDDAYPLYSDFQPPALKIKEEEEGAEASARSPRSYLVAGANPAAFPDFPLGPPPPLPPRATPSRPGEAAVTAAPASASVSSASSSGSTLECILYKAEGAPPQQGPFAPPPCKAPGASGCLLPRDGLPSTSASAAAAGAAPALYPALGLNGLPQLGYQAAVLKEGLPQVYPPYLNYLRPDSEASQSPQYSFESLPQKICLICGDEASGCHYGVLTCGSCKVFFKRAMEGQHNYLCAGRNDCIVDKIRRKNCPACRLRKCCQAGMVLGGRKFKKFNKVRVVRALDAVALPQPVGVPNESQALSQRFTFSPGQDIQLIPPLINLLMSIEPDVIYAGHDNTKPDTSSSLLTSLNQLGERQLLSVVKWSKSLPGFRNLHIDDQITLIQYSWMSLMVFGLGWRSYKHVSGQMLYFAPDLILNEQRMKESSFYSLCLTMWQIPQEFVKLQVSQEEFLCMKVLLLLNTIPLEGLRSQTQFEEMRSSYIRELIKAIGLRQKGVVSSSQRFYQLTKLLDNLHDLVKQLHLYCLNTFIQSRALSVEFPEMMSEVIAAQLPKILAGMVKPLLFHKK
The experiment is described as follows: hPR cotransfection assay in CV-1 cells, agonist mode. It counts as cell-based. The settings on record: Tables 3 and 4, values without footnote; read-out: hPR agonist potencies (EC50 in nM) in the cotransfection assay.

Procedure for hPR: Antagonist efficacy was determined as a function (%) of maximal inhibition of a reference agonist at EC50 concentration. All the cotransfection experiments were carried out in 96-well plates by automation (Beckman Biomomek automated workstation).

In the case of `CC1=CC(C)(C)Nc2ccc3c(c21)C(c1cc2ccccc2s1)Oc1c(F)cc(F)cc1-3` (single isomer, unassigned; (-)) [Compound 64, (−)-7,9-difluoro-5-(benzo[b]thien-2-yl)-1,2-dihydro-2,2,4-trimethyl-5H-chromeno[3,4-f]quinoline], the uterus/breast tissue-selectivity in experiment [1] worked out at 2.8. For the same compound, the minimal effective dose with immature rabbits was found to be 0.25 mg/kg.

As for `CC#CC1Oc2c(F)cc(F)cc2-c2ccc3c(c21)C(C)=CC(C)(C)N3` (single isomer, unassigned; (-)) [Compound 75, (−)-7,9-difluoro-5-(1-propynyl)-1,2-dihydro-2,2,4-trimethyl-5H-chromeno[3,4-f]quinoline], the uterus/breast tissue-selectivity in experiment [1] amounted to 4.2. In addition, in the experiment with immature rabbits, the minimal effective dose is less than 0.5 mg/kg.

As to `CC1=CC(C)(C)Nc2ccc3c(c21)C(c1cccc(C(F)(F)F)c1)Oc1ccccc1-3` (centres unmarked) [Formula I X=H 3-CF3-Ph, reference compound], the uterus/breast tissue-selectivity in experiment [1] is given as 3.5.

Consider `CC1=CC(C)(C)Nc2ccc3c(c21)C(c1ccc(Cl)cc1)Oc1ccccc1-3` (centres unmarked) [Formula I X=H 4-Cl-Ph, reference compound], for which the uterus/breast tissue-selectivity in experiment [1] turned out to be 1.5.

Take `CC1=CC(C)(C)Nc2ccc3c(c21)/C(=C/c1cccc(F)c1)Oc1ccc(F)cc1-3` [Formula II X=9-F 3-F-Ph, reference compound]: in experiment [1], the uterus/breast tissue-selectivity amounted to 2.2. For the same compound, the 50% effective concentration (EC50) at hPR was found to be 7 nM.
